What was measured:
WNV RdRp = WNV RdRp (West Nile virus strain NY-99, UniProt Q9Q6P4); assay: primer extension RNA synthesis, denaturing PAGE; type: biochemical
HRV-C RdRp = molecular target: T1, HRV-C RdRp (rhinovirus C15, UniProt E5D8F2); assay: primer extension RNA synthesis, denaturing PAGE; type: biochemical
T1 sequence (E5D8F2 1694-2153): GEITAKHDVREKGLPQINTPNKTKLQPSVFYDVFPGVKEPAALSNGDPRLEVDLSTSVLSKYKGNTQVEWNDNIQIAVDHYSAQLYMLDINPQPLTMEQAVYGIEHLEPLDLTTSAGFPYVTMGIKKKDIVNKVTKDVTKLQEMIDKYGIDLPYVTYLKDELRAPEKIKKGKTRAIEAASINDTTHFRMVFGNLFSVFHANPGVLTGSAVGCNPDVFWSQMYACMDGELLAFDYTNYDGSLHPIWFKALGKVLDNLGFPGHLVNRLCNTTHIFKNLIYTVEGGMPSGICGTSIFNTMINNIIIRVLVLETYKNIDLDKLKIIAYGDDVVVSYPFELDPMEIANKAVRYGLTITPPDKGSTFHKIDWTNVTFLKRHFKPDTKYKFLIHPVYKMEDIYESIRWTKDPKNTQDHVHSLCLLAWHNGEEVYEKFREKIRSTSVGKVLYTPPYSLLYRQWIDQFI

Hs viperin = molecular target: T2, Hs viperin (Homo sapiens, UniProt Q8WXG1); assay: LC/MS of extracts of transfected HEK293T cells; type: cell-based; conditions: endogenous CTP and SAM; vector control
T2 sequence (Q8WXG1 1-361): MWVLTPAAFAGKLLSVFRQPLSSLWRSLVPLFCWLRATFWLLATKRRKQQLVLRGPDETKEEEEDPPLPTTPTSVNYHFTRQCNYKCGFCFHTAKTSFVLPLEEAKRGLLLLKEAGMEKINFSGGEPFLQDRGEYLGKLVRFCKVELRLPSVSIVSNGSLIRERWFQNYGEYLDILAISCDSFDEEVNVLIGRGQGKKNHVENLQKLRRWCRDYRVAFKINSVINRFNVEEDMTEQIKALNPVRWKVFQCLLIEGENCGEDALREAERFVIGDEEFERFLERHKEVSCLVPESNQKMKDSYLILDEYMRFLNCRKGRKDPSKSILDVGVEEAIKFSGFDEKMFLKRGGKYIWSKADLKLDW

PV RdRp = PV RdRp (Human poliovirus 1 Mahoney, UniProt P03300); type: biochemical
PV RdRp, sequence (P03300 1749-2209 limits assumed): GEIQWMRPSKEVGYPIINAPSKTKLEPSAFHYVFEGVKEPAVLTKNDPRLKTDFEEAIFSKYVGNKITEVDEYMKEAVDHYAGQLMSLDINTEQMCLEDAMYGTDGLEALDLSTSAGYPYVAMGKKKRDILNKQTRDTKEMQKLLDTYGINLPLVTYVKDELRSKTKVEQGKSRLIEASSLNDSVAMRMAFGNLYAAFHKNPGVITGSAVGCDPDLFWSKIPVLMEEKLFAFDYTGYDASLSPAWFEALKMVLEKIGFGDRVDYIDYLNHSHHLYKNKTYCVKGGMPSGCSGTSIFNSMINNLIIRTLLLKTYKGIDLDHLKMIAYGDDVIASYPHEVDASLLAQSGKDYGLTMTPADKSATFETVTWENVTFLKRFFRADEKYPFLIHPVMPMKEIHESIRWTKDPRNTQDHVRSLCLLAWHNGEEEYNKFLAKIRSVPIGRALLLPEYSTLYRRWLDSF

DV RdRp = DV RdRp (Dengue virus 2 Peru/IQT2913/1996, UniProt Q9WDA6); assay: primer extension RNA synthesis, denaturing PAGE; type: biochemical; conditions: 0.1 μM CTP; competes with CTP; incorporated as chain terminator
DV RdRp, sequence (Q9WDA6 2492-3391): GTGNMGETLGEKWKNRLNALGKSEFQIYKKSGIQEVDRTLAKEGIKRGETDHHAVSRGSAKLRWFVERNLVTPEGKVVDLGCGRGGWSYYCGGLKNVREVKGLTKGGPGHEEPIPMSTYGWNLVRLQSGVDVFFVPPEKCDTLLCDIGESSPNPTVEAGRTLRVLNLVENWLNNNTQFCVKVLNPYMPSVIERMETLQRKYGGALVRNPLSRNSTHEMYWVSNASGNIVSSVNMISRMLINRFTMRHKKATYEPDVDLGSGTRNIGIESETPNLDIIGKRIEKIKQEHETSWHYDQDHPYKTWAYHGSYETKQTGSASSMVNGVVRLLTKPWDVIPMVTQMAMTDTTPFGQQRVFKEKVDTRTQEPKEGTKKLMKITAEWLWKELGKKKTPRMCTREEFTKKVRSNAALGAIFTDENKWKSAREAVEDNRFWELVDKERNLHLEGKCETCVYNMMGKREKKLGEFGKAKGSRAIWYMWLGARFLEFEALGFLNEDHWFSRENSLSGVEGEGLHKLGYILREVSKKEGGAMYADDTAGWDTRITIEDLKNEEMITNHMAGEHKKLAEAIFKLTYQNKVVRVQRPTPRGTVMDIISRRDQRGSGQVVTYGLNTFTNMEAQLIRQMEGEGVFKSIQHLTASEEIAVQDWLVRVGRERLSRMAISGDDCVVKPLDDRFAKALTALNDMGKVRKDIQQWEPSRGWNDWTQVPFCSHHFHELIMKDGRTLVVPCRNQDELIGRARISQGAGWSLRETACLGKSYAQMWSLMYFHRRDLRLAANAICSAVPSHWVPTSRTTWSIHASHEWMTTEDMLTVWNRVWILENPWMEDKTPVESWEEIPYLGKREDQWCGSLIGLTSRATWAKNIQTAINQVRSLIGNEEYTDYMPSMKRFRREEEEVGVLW

Hs CMPK2 [1] = molecular target: T3, Hs CMPK2 (Homo sapiens, UniProt Q5EBM0); assay: kinase assay, CTP formation; type: biochemical; conditions: 1 mM CDP; phosphate donor ATP or GTP; 5 μM enzyme
T3 sequence (Q5EBM0 99-449): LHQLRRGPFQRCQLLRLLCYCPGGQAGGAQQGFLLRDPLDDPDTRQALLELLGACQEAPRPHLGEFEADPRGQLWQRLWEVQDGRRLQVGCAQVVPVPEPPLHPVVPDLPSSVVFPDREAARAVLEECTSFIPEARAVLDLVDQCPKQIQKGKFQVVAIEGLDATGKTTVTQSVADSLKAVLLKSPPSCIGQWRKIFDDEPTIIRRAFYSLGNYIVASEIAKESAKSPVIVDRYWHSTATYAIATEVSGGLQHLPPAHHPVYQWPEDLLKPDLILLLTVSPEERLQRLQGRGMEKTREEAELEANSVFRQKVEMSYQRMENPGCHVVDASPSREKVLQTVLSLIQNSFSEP

Hs CMPK2 [2] = molecular target: T3, Hs CMPK2; assay: kinase assay, UTP formation; type: biochemical; conditions: 1 mM UDP; phosphate donor ATP or GTP; 5 μM enzyme

WNV RdRp, sequence (Q9Q6P4 2529-3433): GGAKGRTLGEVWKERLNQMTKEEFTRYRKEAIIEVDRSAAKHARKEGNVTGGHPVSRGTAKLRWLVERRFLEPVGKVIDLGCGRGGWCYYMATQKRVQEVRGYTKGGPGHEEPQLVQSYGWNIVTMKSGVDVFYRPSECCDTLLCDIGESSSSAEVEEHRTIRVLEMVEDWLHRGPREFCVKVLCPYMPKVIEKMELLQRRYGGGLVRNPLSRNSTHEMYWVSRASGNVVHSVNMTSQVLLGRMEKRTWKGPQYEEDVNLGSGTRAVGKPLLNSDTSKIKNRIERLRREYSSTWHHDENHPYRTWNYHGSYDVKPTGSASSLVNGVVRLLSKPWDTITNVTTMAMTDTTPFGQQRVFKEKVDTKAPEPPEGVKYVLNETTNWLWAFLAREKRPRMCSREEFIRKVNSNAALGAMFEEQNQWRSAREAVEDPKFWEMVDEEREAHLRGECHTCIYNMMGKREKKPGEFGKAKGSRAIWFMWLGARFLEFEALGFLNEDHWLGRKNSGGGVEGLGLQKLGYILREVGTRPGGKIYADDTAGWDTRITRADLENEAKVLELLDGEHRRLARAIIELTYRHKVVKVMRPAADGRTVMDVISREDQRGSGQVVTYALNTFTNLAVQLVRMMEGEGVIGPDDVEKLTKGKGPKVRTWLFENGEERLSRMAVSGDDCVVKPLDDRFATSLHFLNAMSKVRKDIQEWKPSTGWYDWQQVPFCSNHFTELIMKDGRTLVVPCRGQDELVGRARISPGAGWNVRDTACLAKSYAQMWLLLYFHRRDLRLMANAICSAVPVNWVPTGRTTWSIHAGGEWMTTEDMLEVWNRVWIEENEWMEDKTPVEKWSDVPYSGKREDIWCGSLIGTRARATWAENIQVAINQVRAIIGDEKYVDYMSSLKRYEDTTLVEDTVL

SMILES: Nc1ccn([C@@H]2OC(COP(=O)(O)OP(=O)(O)OP(=O)(O)O)=C[C@H]2O)c(=O)n1 [ddhCTP]
- IC50 (WNV RdRp): 20 ± 10 µM
- IC50 (HRV-C RdRp): 900 ± 300 µM
- LC/MS of extracts of transfected HEK293T cells (Hs viperin): HEK293T cells transfected with the Hs viperin plasmid exhibited considerable intracellular ddhCTP levels
- primer extension RNA synthesis, denaturing PAGE (PV RdRp): both HRV-C and PV RdRp were poorly inhibited by ddhCTP
- IC50 (DV RdRp): 60 ± 10 µM

SMILES: Nc1ccn([C@@H]2O[C@H](COP(=O)(O)OP(=O)(O)OP(=O)(O)O)C[C@H]2O)c(=O)n1 [3′-dCTP]
- IC50 (HRV-C RdRp): 5 ± 1 µM

SMILES: Nc1ccn([C@@H]2O[C@H](COP(=O)(O)OP(=O)(O)O)[C@@H](O)[C@H]2O)c(=O)n1 [CDP]
- kinase assay, CTP formation (Hs CMPK2 [1]): Hs CMPK2 exhibits significant preference for CDP and UDP as substrates

SMILES: O=c1ccn([C@@H]2O[C@H](COP(=O)(O)OP(=O)(O)O)[C@@H](O)[C@H]2O)c(=O)[nH]1 [UDP]
- kinase assay, UTP formation (Hs CMPK2 [2]): Hs CMPK2 exhibits significant preference for CDP and UDP as substrates
